{
  "source": "patent US20250164396A1",
  "about": "“METHOD FOR VISUALIZING DENATURED STATE OR AGGREGATED STATE OF PROTEIN” (TOHOKU UNIVERSITY, priority 2022, published 2025)",
  "key": {"HSP90 [1]": {"test_system": "HSP90", "test": "Two-dimensional electrophoresis of probe-labelled HeLa lysate, denatured HSP90 with or without geldanamycin", "type": "binding", "conditions": "probe 1 mM, geldanamycin 50 μM, 45° C. for 5 minutes, total protein; FIG. 18", "protocol": "HeLa cells were scraped with a scraper and washed three times with ice-cold PBS, and a protease inhibitor cocktail (Nacalai, 25955-24) was resuspended in ice-cold M-PER buffer (Thermo Fisher Scientific, 78503) and allowed to stand on ice for 10 minutes. After centrifugation at 20,000×g for 20 minutes at 4° C., the supernatant was separated from the cell lysate. The protein concentration was determined by using the BCA method. To the supernatant (2 mg/ml), the same amount of geldanamycin (TCI, […]; final concentration: 50 μM) and DMSO were added, followed by treatment at room temperature for 10 minutes. […] A stock solution (DMSO solution) of 100 mM iPrONBD was added to the sample to a final concentration of 1 mM and allowed to stand at 37° C. for 30 minutes, and the solution was then transferred to a PCR tube. The PCR tube was heated using a thermal cycler (MiniAmp Plus) at 45° C. for 5 minutes and then allowed to stand at room temperature. A sample was prepared according to the protocol of the ReadyPrep 2-D cleanup kit (Bio-Rad), and the final pellets obtained were dissolved in 15 μL of swelling buffer (containing ampolyte, pH: 3-10) included with the Auto2D Glycine Type Reagent Kit, followed by two-dimensional electrophoresis (FIG. 18)."}, "HSP90 [2]": {"test_system": "HSP90", "test": "SDS-PAGE fluorescence detection of denatured HSP90 in HeLa cell lysate, with or without geldanamycin", "type": "binding", "conditions": "probe 1 mM, geldanamycin 50 μM, each temperature for 5 minutes, pellet fraction; FIG. 16", "protocol": "HeLa cells were scraped with a scraper and washed three times with ice-cold PBS, and a protease inhibitor cocktail (Nacalai, 25955-24) was resuspended in ice-cold M-PER buffer (Thermo Fisher Scientific, 78503) and allowed to stand on ice for 10 minutes. After centrifugation at 20,000×g for 20 minutes at 4° C., the supernatant was separated from the cell lysate. The protein concentration was determined by using the BCA method. To the supernatant (2 mg/ml), the same amount of geldanamycin (TCI, […]; final concentration: 50 μM) and DMSO were added, followed by treatment at room temperature for 10 minutes. […] A stock solution (DMSO solution) of 100 mM ONBD was added to the sample to a final concentration of 1 mM and allowed to stand at 37° C. for 30 minutes, and the solution was then transferred to a PCR tube. The PCR tube was heated using a thermal cycler (MiniAmp Plus) at each temperature for 5 minutes and then allowed to stand at room temperature. The sample was centrifuged at 20,000×g for 15 minutes at 4° C. In 1D SDS-PAGE (Bio-Rad, 4-10% acrylamide gel) of the pellet fraction, SDS-PAGE was performed while mixing with 1×SDS sample buffer and heating for 5 minutes at 95° C. Using various probes, SDS-PAGE was performed in the same manner as in Example 17 under heating conditions of 45° C. for 5 minutes (FIG. 17). […]"}, "[3]": {"biological_target": "T1, Bovine carbonic anhydrase (Bos taurus, UniProt P00921)", "T1 construct": "purchased Aldrich C3934", "T1 sequence (P00921 whole entry)": "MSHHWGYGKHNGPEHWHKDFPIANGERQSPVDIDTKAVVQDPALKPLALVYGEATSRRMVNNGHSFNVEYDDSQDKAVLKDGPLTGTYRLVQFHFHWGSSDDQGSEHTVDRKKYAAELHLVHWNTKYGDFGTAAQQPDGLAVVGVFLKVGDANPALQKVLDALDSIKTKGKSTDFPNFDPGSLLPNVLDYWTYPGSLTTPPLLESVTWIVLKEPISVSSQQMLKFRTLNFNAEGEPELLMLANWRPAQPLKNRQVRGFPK", "test": "Fluorescence response of ONBD probes to heat denaturation of carbonic anhydrase", "conditions": "1 mM ONBD compound; heated from 25° C. by 5° C. every 180 seconds; FIG. 1", "protocol": "The PCR tube was heated with a protocol to increase the temperature by 5° C. every 180 seconds from 25° C. using a real-time PCR system (Takara Bio Inc., Thermal Cycler Dice, TP800). The fluorescence (FAM mode for ONBD compounds) was measured at the last 15 seconds of each step. Sypro Orange (Invitrogen S6650, 5000× concentration in DMSO) of the comparison target was added to a final concentration of 10×, the same operation was carried out, and the fluorescence was measured in ROX mode. The ONBD compounds used were the following five types: MeONBD, iPrONBD, nBuONBD, iBuONBD, and octylONBD."}, "α-Synuclein fibril": {"biological_target": "T2, α-Synuclein fibril (Homo sapiens, UniProt P37840)", "T2 construct": "purchased Cosmo Bio Co., Ltd. SYN03", "test": "Quantification of aggregated state of α-synuclein fibril by probe fluorescence", "conditions": "500 nM fibril, 37° C.; FIG. 3", "protocol": "α-Synuclein fibril (Cosmo Bio Co., Ltd., SYN03) was diluted with 10 mM MES buffer (pH: 7.4) to prepare a 500 nM solution. The solution was dispensed in 50 μL portions in a 96-well half well black plate (Greiner, 675086). […] The fluorescence (using filters for Ex: […]) was measured in a plate reader (Teccan, Infinite 200 Pro F PLEX) under constant temperature conditions at 37° C. with plate shaking at 1 second per minute. The ONBD compounds used were three types: iPrONBD and octylONBD described above, as well as PEGONBD shown below."}, "[4]": {"biological_target": "T3, bovine carbonic anhydrase (CAII) (Bos taurus, UniProt P00921)", "T3 construct": "purchased Aldrich C3934", "T3 sequence (P00921 whole entry)": "as above", "test": "Detection of heat-denatured CAII in HEK293FT cell disruption solution by two-dimensional electrophoresis, with or without ligand", "type": "binding", "protocol": "Thereafter, centrifugation was performed at 14,000×g for 10 minutes, and the supernatant was collected. […] The PCR tube was heated in a thermal cycler (Applied Biosystems, Mini Amp Plus) at 65° C. for 5 minutes and then allowed to stand at room temperature. The subsequent protocol to prepare two-dimensional electrophoresis samples was performed in the following two ways.\n(Protocol to collect all proteins) A sample was prepared according to the protocol of the ReadyPrep 2-D cleanup kit (Bio-Rad), and the final pellets obtained were dissolved in 15 μL of swelling buffer (containing ampolyte, pH: 3-10) included with the Auto2D Glycine Type Reagent Kit.\n(Protocol to collect pellets) The heated sample was centrifuged (at 20,000×g for 20 minutes), the supernatant was discarded, and the remaining pellets were dissolved in 15 μL of swelling buffer (containing ampolyte, pH: 3-10) included with the Auto2D Glycine Type Reagent Kit.\nTwo-dimensional electrophoresis was performed according to the long-term protocol of Auto 2D Plus (Merck), and fluorescence images of the resulting gel were obtained using a fluorescence imager (Vilver Lourmat, Fusion Solo S). […] The ONBD compound used was iPrONBD described above."}},
  "data": [
    {"smiles": "CC(C)Oc1ccc([N+](=O)[O-])c2nonc12", "note": "[iPrONBD]", "values": [
      {"measurement": "visualization of ligand-induced change in heat denaturation resistance of HSP90 by probe fluorescence", "setting": "HSP90 [1]", "value": "it was possible to visualize changes in the heat denaturation resistance of the target HSP90 by ligand addition"},
      {"measurement": "visualization of ligand-induced heat denaturation resistance of HSP90 by probe fluorescence", "setting": "HSP90 [2]", "value": "it was possible to visualize the acquisition of target heat denaturation resistance by ligand addition"},
      {"measurement": "increase in the fluorescence intensity on heating", "setting": "[3]", "value": "the increase in the fluorescence intensity was significant"}
    ]},
    {"smiles": "CCCCCCCCOc1ccc([N+](=O)[O-])c2nonc12", "note": "[octylONBD]", "values": [
      {"measurement": "increase in fluorescence intensity over time in the presence of α-synuclein fibril", "setting": "α-Synuclein fibril", "value": "the increase in the fluorescence intensity was significant"}
    ]},
    {"smiles": "O=[N+]([O-])c1ccc(Br)c2nonc12", "note": "[Br-NBD]", "values": [
      {"measurement": "suitability as probe under the denaturation conditions", "setting": "[4]; 65° C., 5 minutes", "value": "appropriate probe"},
      {"measurement": "reduction in the fluorescence intensity of CA by brinzolamide, comparison of probes", "setting": "[4]; iPrONBD versus BrNDB, FIG. 15", "value": "the reduction in the fluorescence intensity of CA was more significant"}
    ]}
  ]
}
